Experimental findings from US12485121B2, “Antiviral agents for the treatment and prevention of HIV infection” (Pharmasyntez, Joint Stock Company, priority 2020, dated 2025) are described below.

The subject of the assay is HIV-1 subtype A strain 12RU 69831. The experiment in a line: Inhibition of HIV-1 reproduction / protection of infected MT-4 cells (living cell concentration, p24 production). The assay is classed as cell-based. The conditions noted are these: Human immunodeficiency virus 1, MT4, MT-4 cells infected with HIV-1 at a constant virus dose of 300 CCID50; read-out: Activity against HIV-1 12RU 69831 strain (subtype A). The method, then:
Evaluation of HIV reproduction inhibition/protection of human cells by anti-HIV products of the present invention was conducted by measuring change in living cells concentration in experimental wells with MT-4 cells infected with HIV-1, as well as by the production of viral protein p24 with adding different concentrations of compounds according to the present invention. Antiviral activity of products against HIV-1 subtype A strain 12RU 69831 was determined, when the cell culture was infected with a constant dose of virus, corresponding to 300 CCID50.
As to `Cc1cc(C#N)cc(C)c1Oc1nc(Nc2ccc(C#N)cc2)nc2c1CCN(C1CCOCC1)CC2` [BB0274072, 4-((2-((4-Cyanophenyl)amino)-7-(tetrahydro-2H-pyran-4-yl)-6,7,8,9-tetrahydro-5H-pyrimido[4,5-d]azepine-4-yl)oxy)-3,5-dimethylbenzonitrile], the IC50 was found to be 4.07 µM. For `Cc1ccc(CN2CCc3nc(Nc4ccc(C#N)cc4)nc(Oc4c(C)cc(C#N)cc4C)c3CC2)o1` [BB0274073] the value was 57.4 µM; for `Cc1cc(C#N)cc(C)c1Oc1nc(Nc2ccc(C#N)cc2)nc2c1CCN(Cc1cccn1C)CC2` [BB0274074], 83.3 µM. The figure for `Cc1cc(C#N)cc(C)c1Oc1nc(Nc2ccc(C#N)cc2)nc2c1CCN(Cc1ccc(O)cc1)CC2` [BB0274075, 4-((2-((4-Cyanophenyl)amino)-7-(4-hydroxybenzyl)-6,7,8,9-tetrahydro-5H-pyrimido[4,5-d]azepine-4-yl)oxy)-3,5-dimethylbenzonitrile] is 5.8 µM; for `COCC(C)N1CCc2nc(Nc3ccc(C#N)cc3)nc(Oc3c(C)cc(C#N)cc3C)c2CC1` (stereo not drawn) [BB0274080] it is 0.414 µM; for `Cc1cc(C#N)cc(C)c1Oc1nc(Nc2ccc(C#N)cc2)nc2c1CCN(CC#N)CC2` [BB0274095, 4-((7-(cyanomethyl)-2-((4-cyanophenyl)amino)-6,7,8,9-tetrahydro-5H-pyrimido[4,5-d]azepine-4-yl)oxy)-3,5-dimethylbenzonitrile] it is 11.3 µM. With `Cc1cc(C#N)cc(C)c1Oc1nc(Nc2ccc(C#N)cc2)nc2c1CN(C(=O)C1CCCN1C(=O)OC(C)(C)C)CC2` (stereo not drawn) [BB0274097, Tert-butyl 2-(4-(4-cyano-2,6-dimethylphenoxy)-2-((4-cyanophenyl)amino)-5,6,7,8-tetrahydropyrido[4,3-d]pyrimidine-6-carbonyl)pyrrolidine-1-carboxylate], the IC50 turned out to be 664 µM. For the compound `Cc1cc(C#N)cc(C)c1Oc1nc(Nc2ccc(C#N)cc2)nc2c1CN(C(=O)C1CCCN1)CC2` (stereo not drawn) [BB0274098, 4-((2-((4-Cyanophenyl)amino)-6-(pyrrolidine-2-carbonyl)-5,6,7,8-tetrahydropyrido[4,3-d]pyrimidine-4-yl)oxy)-3,5-dimethylbenzonitrile], the IC50 is 0.046 µM. With `Cc1cc(C#N)cc(C)c1Oc1nc(Nc2ccc(C#N)cc2)nc2c1CN(C(=O)C1CNC1)CC2` [BB0274099, 4-((6-(Azetidine-3-carbonyl)-2-((4-cyanophenyl)amino)-5,6,7,8-tetrahydropyrido[4,3-d]pyrimidine-4-yl)oxy)-3,5-dimethylbenzonitrile], the IC50 was 0.152 µM. Take `Cc1cc(C#N)cc(C)c1Oc1nc(Nc2ccc(C#N)cc2)nc2c1CN(C(=O)c1cnccn1)CC2` [BB0274100, 4-((2-((4-Cyanophenyl)amino)-6-(pyrazine-2-carbonyl)-5,6,7,8-tetrahydropyrido[4,3-d]pyrimidine-4-yl)oxy)-3,5-dimethylbenzonitrile]: the IC50 stood at 33.8 µM. Consider `Cc1cc(C#N)cc(C)c1Oc1nc(Nc2ccc(C#N)cc2)nc2c1CN(C(=O)[C@H](C)NC(=O)OC(C)(C)C)CC2` [BB0274101, (S)-Tert-butyl (1-(4-(4-cyano-2,6-dimethylphenoxy)-2-((4-cyanophenyl)amino)-7,8-dihydropyrido[4,3-d]pyrimidine-6(5H)-yl)-1-oxopropane-2-yl)carbamate], for which the IC50 came out at 8.8 µM. As for `Cc1cc(C#N)cc(C)c1Oc1nc(Nc2ccc(C#N)cc2)nc2c1CN(C(=O)[C@H](C)N)CC2` [BB0274102, (S)-4-((6-(2-Aminopropanoyl)-2-((4-cyanophenyl)amino)-5,6,7,8-tetrahydropyrido[4,3-d]pyrimidine-4-yl)oxy)-3,5-dimethylbenzonitrile], the IC50 was 0.00341 µM.

In the case of `Cc1cc(C#N)cc(C)c1Oc1nc(Nc2ccc(C#N)cc2)nc2c1CN(C(=O)[C@H](Cc1ccccc1)NC(=O)OC(C)(C)C)CC2` [BB0274103, (S)-Tert-butyl (1-(4-(4-cyano-2,6-dimethylphenoxy)-2-((4-cyanophenyl)amino)-7,8-dihydropyrido[4,3-d]pyrimidine-6(5H)-yl)-1-oxo-3-phenylpropane-2-yl)carbamate], the IC50 is 228 µM. The figure for `Cc1cc(C#N)cc(C)c1Oc1nc(Nc2ccc(C#N)cc2)nc2c1CN(C(=O)[C@@H](N)Cc1ccccc1)CC2` [BB0274111, (S)-4-((6-(2-Amino-3-phenylpropanoyl)-2-((4-cyanophenyl)amino)-5,6,7,8-tetrahydropyrido[4,3-d]pyrimidine-4-yl)oxy)-3,5-dimethylbenzonitrile] is 533 µM; for `Cc1cc(C#N)cc(C)c1Oc1nc(Nc2ccc(C#N)cc2)nc2c1CCN(CCN1CCOCC1)CC2` [BB0274118, 4-((2-((4-Cyanophenyl)amino)-7-(2-morpholineethyl)-6,7,8,9-tetrahydro-5H-pyrimido[4,5-d]azepine-4-yl)oxy)-3,5-dimethylbenzonitrile] it is 0.324 µM; for `Cc1cc(C#N)cc(C)c1Oc1nc(Nc2ccc(C#N)cc2)nc2c1CN(C(=O)[C@@H](CO)NC(=O)OC(C)(C)C)CC2` [BB0274119, (R)-Tert-butyl (1-(4-(4-cyano-2,6-dimethylphenoxy)-2-((4-cyanophenyl)amino)-7,8-dihydropyrido[4,3-d]pyrimidine-6(5H)-yl)-3-hydroxy-1-oxopropane-2-yl)carbamate] it is 103 µM. For `CSCCC(NC(=O)OC(C)(C)C)C(=O)N1CCc2nc(Nc3ccc(C#N)cc3)nc(Oc3c(C)cc(C#N)cc3C)c2C1` (stereo not drawn) [BB0274120, Tert-butyl (1-(4-(4-cyano-2,6-dimethylphenoxy)-2-((4-cyanophenyl)amino)-7,8-dihydropyrido[4,3-d]pyrimidine-6(5H)-yl)-4-(methylthio)-1-oxobutane-2-yl)carbamate] the value was 108 µM; for `Cc1cc(C#N)cc(C)c1Oc1nc(Nc2ccc(C#N)cc2)nc2c1CN(C(=O)C(N)Cc1cn[nH]c1)CC2` (stereo not drawn) [BB0274121, 4-((6-(2-Amino-3-(1H-pyrazole-4-yl)propanoyl)-2-((4-cyanophenyl)amino)-5,6,7,8-tetrahydropyrido[4,3-d]pyrimidine-4-yl)oxy)-3,5-dimethylbenzonitrile], 18.7 µM. The figure for `Cc1cc(C#N)cc(C)c1Oc1nc(Nc2ccc(C#N)cc2)nc2c1CN(C(=O)C(Cc1cnn(C(=O)OC(C)(C)C)c1)NC(=O)OC(C)(C)C)CC2` (stereo not drawn) [BB0274122, Tert-butyl 4-(2-((tert-butoxycarbonyl)amino)-3-(4-(4-cyano-2,6-dimethylphenoxy)-2-((4-cyanophenyl)amino)-7,8-dihydropyrido[4,3-d]pyrimidine-6(5H)-yl)-3-oxopropyl)-1H-pyrazole-1-carboxylate] is 18.9 µM; for `Cc1cc(C#N)cc(C)c1Oc1nc(Nc2ccc(C#N)cc2)nc2c1CN(C(=O)[C@H](N)CO)CC2` [BB0274123, (R)-4-((6-(2-Amino-3-hydroxypropanoyl)-2-((4-cyanophenyl)amino)-5,6,7,8-tetrahydropyrido[4,3-d]pyrimidine-4-yl)oxy)-3,5-dimethylbenzonitrile] it is 2.07 µM; for `Cc1cc(C#N)cc(C)c1Oc1nc(Nc2ccc(C#N)cc2)nc2c1CN(C(=O)[C@H](Cc1ccc(O)cc1)NC(=O)OC(C)(C)C)CC2` [BB0274124, (S)-Tert-butyl (1-(4-(4-cyano-2,6-dimethylphenoxy)-2-((4-cyanophenyl)amino)-7,8-dihydropyrido[4,3-d]pyrimidine-6(5H)-yl)-3-(4-hydroxyphenyl)-1-oxopropane-2-yl)carbamate] it is 342 µM.
